Source: patent publication US4619932A, “Novel carbostyril derivatives, process for producing thereof and pharmaceutical composition containing the same” (Otsuka Pharmaceutical Co., Ltd., priority 1980, dated 1986)
Structures can show the parent of a compound that is named as a salt. Where two headings read alike, the source gives them in different places.

Key:
Halothane anesthesia = Halothane anesthesia increasing activity; type: in vivo, mouse (male, ddy-strain); settings: 16 mg/kg oral, 1 hour before 4% Halothane for 3 minutes; righting reflex
Method: Male mice of ddy-strain a having about 20 g body weight were used. One test group consists of 10 mice. An aqueous Gummi Arabicum suspension of test compound (80 mg of a compound to be tested and 1 g of Gummi Arabicum/100 ml of physiological NaCl solution) was administered orally to each mouse at the dosage of 16 mg of test compound/kg body. One hour after the administration, each mouse was placed in gas respiration chamber (13×13×24 cm) and oxygen gas containing 4% of Halothane (2-brome-2-chloro-1,1,1-trifluoroethane) was flown into the chamber at the velocity of 2/min for 3 minutes. A mouse anaesthetized was taken out from the chamber and the time between the introduction of anesthesia to waking was measured by righting reflex as the index. To mice of control group, 1% Gummi Arabicum aqueous physiological solution was orally administered at the dosage of 0.1 ml/kg body.

[1] = tested on: jumping behavior induced by Methamphetamine and L-DOPA; assay: Activity for inhibiting jumping behavior in mouse induced by Methamphetamine and L-DOPA; type: in vivo, mouse (male, ddy-strain); settings: oral, Methamphetamine 4 mg/kg i.p. and L-DOPA 400 mg/kg i.p., positive = 10 or fewer jumps, read-out: ED50 value, inhibition of jumping behavior
Method: (B) Activity for inhibiting jumping behavior in mouse induced by Methamphetamine and L-DOPA
Individual male mice of ddy-strain having a body weight of 17 to 25 g were used. The mice were not fed for 24 hours. One test group consisted of 6 mice. A compound to be tested was administered orally. 40Minutes after the administration 4 mg/kg of Methamphetamine d-N-α-dimethylphenthylamine was intraperitonerally administered, further 15 minutes after the administration of Methamphetamine, 400 mg/kg of L-DOPA was intraperitonerally administered. 60 Minutes after the administration of L-DOPA, (3-(3,4-dihydroxyphenyl)alanine) the mouse was placed in a glass beaker of 2 liters capacity, and the number of jumping of the mouse was recorded. The activity for inhibiting jumping behavior of the test compound was determined as positive in case of number of jumping performed by the administered mouse counted 10 or less. While, the activity for inhibiting jumping behabior of the test compound was determined as negative in case the number of jumping performed by the administered mouse recorded over 10. The effective dosage (ED50 value: mg/kg) of the test compound which gives 3 mice were positive over 6 mice of one test group was calculated. The number of jumping performed by the mouse being administered with physiological saline solution as the reference was 150 to 200 per hour. (Cf. H. Lal, F. C. Colpaert, P. Laduron: European J. Pharmacol., 30, 113-116 (1975)).

epinephrine = assay: Activity for antagonizing epinephrine in mouse; type: in vivo, mouse (male, ddy strain); settings: oral, 1 hour before epinephrine 40 mg/kg i.p., survival at 24 hours, read-out: ED50 value, dose allowing half the animals to survive
Method: (C) Activity for antagonizing epinephrine in mouse
Individual male mice of ddy strain having 17 to 20 g of body weight were used. The mice were abstained from eating for 24 hours. One test group consist of 10 mice. A compound to be tested was administered orally. One hour after the administration, 40 mg/kg of epinephrine was intraperitonerally administered. […] All of 10 mice administered physiological saline solution as the reference group were dead within a few minutes after the administration of epinephrine. (Cf. Loew, E. R. and Micetich, A., J. Pharmacol. Exp. Ther., 93, 434-443 (1948)).

palpebral ptosis = assay: Palpebral ptosis test in mouse; type: in vivo, mouse (male, ddy-strain); settings: 64 mg/kg oral, 1 hour; score 0 (wide open eyes) to 8 (eyes completely closed); mean of 10 mice
Method: (D) Activity of palpebral ptosis test in mouse
Individual male mice of ddy-strain having 18 to 20 g of body weight were used. The mice were abstained from eating for 24 hours. One test group consists of 10 mice. […] One hour after the administration, the state of palpebral ptosis of the mouse were observed and evaluated on the basis of the following score system. The mean value was calculated from the scores of 10 mice.
Score Degree of palpebral ptosis
8 Eyes completely closed.

male rats = settings: rat, in vivo, po
Method: Each of the following compound of the general formula in the present invention was administered orally to male rats to determine the acute toxicity (LD50 mg/kg).

[2] = target: retraction of ileum caused by histamine (Cavia porcellus, UniProt P31389); assay: Antihistaminic activity test in vitro, enucleated ileum of guinea pig; parameters: species or system guinea pig (male)
Description: (E) Antihistaminic activity test
As to the test method for determining antihistaminic activity of a compound in vitro, a method of using an enucleated ileum of a guinea pig is generally accepted. Antihistaminic activity of the present compounds was conduted according to said method as follows:
A male guinea pig having 300 to 500 g body weight was killed by blood letting. An ileum having length of 15 cm being enucleated from the ileocecal region was dipped into Tyrode's solution (which was prepared from 8.0 g of NaCl, 0.2 g of KCl, 0.2 g of CaCl2, 1.0 g of glucose, 1.0 g of NaHCO3, 0.065 g of NaHPO4.2H2 O and 0.2135 g of MgCl2.6H2 O make 1000 ml in total volume by adding water). Then the tissue of ileum was cut to a length of 2.5 to 3.0 cm and suspended in an organ bath filled with 30 ml of Tyrode's solution. The organ bath was kept a temperature of 36° C. and blowing a mixed gas consisting of 5% of CO2 and 95% of O2 into the bath. 10 Minutes after the blowing, 10^-6M of histamine was added to the bath to examine the sensitivity of the tissue and a reaction curve (control) with respect to the dosage of histamine was obtained. After the dosage of histamine-reaction curve (control) become constant 10^-6 g/ml of a compound to be tested was added to the bath and further histamine was added 5 minutes later to obtain dosage-reaction curve. Retraction of the isotonic was recorded on a pen-recorder through an isotonic transducer (TD-112S manufactured by Nihon Koden). Antihistaminc activity of the test compound was determined as pA2 value by "Van Rossam" method (J. M. Van Rossam: Arch. Inst. Pharmacodyn. Ther., 143, 299 (1963)) in terms of that the maximum retraction of ileum caused by histamine shown in the control curve is 100%.

[3] = 10^-6 g/ml test compound, histamine, Tyrode's solution, 36° C., Van Rossam method, read-out: pA2 (converted)

Sequence of retraction of ileum caused by histamine (P31389 whole entry): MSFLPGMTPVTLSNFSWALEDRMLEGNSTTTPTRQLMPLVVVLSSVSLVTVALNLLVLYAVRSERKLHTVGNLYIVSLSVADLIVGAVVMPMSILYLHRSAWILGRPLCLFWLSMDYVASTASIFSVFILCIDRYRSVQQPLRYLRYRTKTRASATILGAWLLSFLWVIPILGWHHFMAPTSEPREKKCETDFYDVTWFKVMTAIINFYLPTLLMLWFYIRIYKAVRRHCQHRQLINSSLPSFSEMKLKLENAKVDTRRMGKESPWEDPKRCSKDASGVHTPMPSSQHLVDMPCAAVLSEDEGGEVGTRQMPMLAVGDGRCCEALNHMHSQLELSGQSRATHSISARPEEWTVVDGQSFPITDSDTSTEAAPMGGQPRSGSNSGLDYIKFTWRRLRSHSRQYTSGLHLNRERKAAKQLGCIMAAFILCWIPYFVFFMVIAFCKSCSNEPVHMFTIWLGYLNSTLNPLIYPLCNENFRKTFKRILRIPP

Q: Which results are given for `O=C1CCc2cc(C(=O)CCN3CCN(c4ccccc4)CC3)ccc2N1` [Compound 1, 6-[1-Oxo-3-(4-phenyl-1-piperazinyl)propyl]-3,4-dihydrocarbostyril]?
A: Time (minutes) between introduction of anesthesia to waking (Halothane anesthesia): 13.3 min; ED50 [1]: 1.35 mg/kg; ED50 (epinephrine): 3.03 mg/kg; Score obtained (Mean value), degree of palpebral ptosis (palpebral ptosis): 1.67; Acute toxicity (LD50) (male rats): 500 mg/kg

Q: For `O=C1CCc2cc(C(=O)CCCN3CCN(c4ccccc4)CC3)ccc2N1` [Compound 2, 6-[1-Oxo-4-(4-phenyl-1-piperazinyl)butyl]-3,4-dihydrocarbostyril.monohydrochloride], which “Time (minutes) between introduction of anesthesia to waking” value (Halothane anesthesia) is on record?
A: Its value is 11.5 min.

Q: What about the ED50 [1] of the same molecule?
A: Its ED50 is 1.52 mg/kg.

Q: And the ED50 (epinephrine)?
A: Its ED50 is 4.02 mg/kg.

Q: What about the “Score obtained (Mean value), degree of palpebral ptosis” value (palpebral ptosis) of the same molecule?
A: The value was 4.5.

Q: What about the “Acute toxicity (LD50)” value (male rats) of the same molecule?
A: The value was 500 mg/kg.

Q: `O=C1CCc2cc(C(=O)CCCN3CCN(c4ccccc4Cl)CC3)ccc2N1` [Compound 3, 6-{1-Oxo-4-[4-(2-chlorophenyl)-1-piperazinyl]butyl}-3,4-dihydrocarbostyril.monohydrochloride.monohydrate] was tested. Which “Time (minutes) between introduction of anesthesia to waking” value (Halothane anesthesia) did it give?
A: Its value is 8.0 min.

Q: What about the ED50 [1] of the same molecule?
A: Its ED50 is 1.05 mg/kg.

Q: And the ED50 (epinephrine)?
A: The ED50 was 6.12 mg/kg.

Q: And the “Score obtained (Mean value), degree of palpebral ptosis” value (palpebral ptosis)?
A: Its value is 2.0.

Q: What about the “Acute toxicity (LD50)” value (male rats) of the same molecule?
A: The value was 500 mg/kg.

Q: For `CN1C(=O)CCc2cc(C(=O)CCN3CCN(c4ccccc4)CC3)ccc21` [Compound 20, 1-Methyl-6-[1-oxo-3-(4-phenyl-1-piperazinyl)propyl]-3,4-dihydrocarbostyril.monooxalate], which Kb [2, 3] is on record?
A: Its Kb is 26.3 nM.

Q: What about the “Acute toxicity (LD50)” value (male rats) of the same molecule?
A: The value was 500 mg/kg.

Q: For `Cc1cccc(N2CCN(CC=Cc3ccc4c(c3)CCC(=O)N4Cc3ccccc3)CC2)c1` [Compound 21, 1-Benzyl-6-{3-[4-(3-methylphenyl)-1-piperazinyl]-1-propenyl}-3,4-dihydrocarbostyril monooxalate], which Kb [2, 3] is on record?
A: Its Kb is 49 nM.

Q: For `O=C1CCc2c(CCCN3CCN(c4ccccc4)CC3)cccc2N1` [Compound 22, 5-[3-(4-Phenyl-1-piperazinyl)propyl]-3,4-dihydrocarbostyril], which Kb [2, 3] is on record?
A: The Kb was 97.7 nM.

Q: And the “Acute toxicity (LD50)” value (male rats)?
A: Its value is 500 mg/kg.

Q: How did the Kb [2] turn out when `Cc1ccc(C2=CCN(CC=Cc3ccc4c(c3)CCC(=O)N4)CC2)cc1` [Compound 23, 6-{3-[4-(4-Methylphenyl)-1,2,5,6-tetrahydropyridyl]-1-propenyl}-3,4-dihydrocarbostyril] was run?
A: The Kb was 15.5 nM.

Q: What about the “Acute toxicity (LD50)” value (male rats) of the same molecule?
A: The value was 500 mg/kg.

Q: Which results are given for `O=C1CCc2cc(C(=O)CCN3CCC(Cc4ccccc4)CC3)ccc2N1` [Compound 24]?
A: Kb [2, 3]: 58.9 nM; Acute toxicity (LD50) (male rats): 500 mg/kg
